Results from patent publication US20070196866A1, “Modulators of ion channel trpa1” (IRM LLC, priority 2004, published 2007).

Key:
Type in all cases: cell-based
[1] = target: T1, mTRPA1 (Mus musculus, UniProt Q8BLA8); test: Ratiometric calcium imaging of CHO cells expressing mTRPA1
T1 construct: expressed in transfected cells; host or cells: CHO cells

[2] = target: T2, mouse TRPA1 (Mus musculus, UniProt Q8BLA8); test: FLIPR intracellular calcium assay, mouse TRPA1-expressing CHO cells
T2 construct: expressed in transfected cells; host or cells: CHO cells

[3] = system: TRPV1; test: Calcium imaging of TRPV1-expressing CHO cells
[4] = system: adult rat DRG neurons; test: Calcium imaging of cultured adult rat DRG neurons
Source text: To further test this hypothesis, and to find out if the pungent compounds described above activate TRPA1 specifically, we performed calcium imaging of adult rat DRG neurons in response to cold, menthol, cinnamaldehyde, allyl isothiocyanate, and bradykinin. […] To a large extent, cinnamaldehyde and menthol activated mutually exclusive populations of cold-responsive neurons, as our model would predict. Allyl isothiocyanate appeared less specific as it activated 63% of the cold-responsive population (including a large overlap with menthol) and 12% of the cold-insensitive population. We have used 1.6 times the EC50 values of cinnamaldehyde and allyl isothiocyanate to enable us to directly compare DRG response profiles to these compounds. […] There were no significant differences in profiles of cinnamaldehyde and allyl isothiocyanate between cultures in the presence of 1 and 100 ng/ml of NGF.
In addition to the pungent sensory compounds, we have shown that BK can activate TRPA1.
To test if garlic extracts and allicin specifically activate TRPA1 in native neurons, we performed calcium imaging of adult rat DRG neurons. […] Addition of allicin or garlic extract to cultured rat DRG neurons activated a specific population of neurons.

[5] = target: T3, TRPA1 (Homo sapiens, UniProt O75762); test: Electrophysiological recording of TRPA1-expressing oocytes; design: expressed in transfected cells; host or cells: oocytes; settings: 1 μM
Target sequence in this assay (O75762 whole entry, species assumed): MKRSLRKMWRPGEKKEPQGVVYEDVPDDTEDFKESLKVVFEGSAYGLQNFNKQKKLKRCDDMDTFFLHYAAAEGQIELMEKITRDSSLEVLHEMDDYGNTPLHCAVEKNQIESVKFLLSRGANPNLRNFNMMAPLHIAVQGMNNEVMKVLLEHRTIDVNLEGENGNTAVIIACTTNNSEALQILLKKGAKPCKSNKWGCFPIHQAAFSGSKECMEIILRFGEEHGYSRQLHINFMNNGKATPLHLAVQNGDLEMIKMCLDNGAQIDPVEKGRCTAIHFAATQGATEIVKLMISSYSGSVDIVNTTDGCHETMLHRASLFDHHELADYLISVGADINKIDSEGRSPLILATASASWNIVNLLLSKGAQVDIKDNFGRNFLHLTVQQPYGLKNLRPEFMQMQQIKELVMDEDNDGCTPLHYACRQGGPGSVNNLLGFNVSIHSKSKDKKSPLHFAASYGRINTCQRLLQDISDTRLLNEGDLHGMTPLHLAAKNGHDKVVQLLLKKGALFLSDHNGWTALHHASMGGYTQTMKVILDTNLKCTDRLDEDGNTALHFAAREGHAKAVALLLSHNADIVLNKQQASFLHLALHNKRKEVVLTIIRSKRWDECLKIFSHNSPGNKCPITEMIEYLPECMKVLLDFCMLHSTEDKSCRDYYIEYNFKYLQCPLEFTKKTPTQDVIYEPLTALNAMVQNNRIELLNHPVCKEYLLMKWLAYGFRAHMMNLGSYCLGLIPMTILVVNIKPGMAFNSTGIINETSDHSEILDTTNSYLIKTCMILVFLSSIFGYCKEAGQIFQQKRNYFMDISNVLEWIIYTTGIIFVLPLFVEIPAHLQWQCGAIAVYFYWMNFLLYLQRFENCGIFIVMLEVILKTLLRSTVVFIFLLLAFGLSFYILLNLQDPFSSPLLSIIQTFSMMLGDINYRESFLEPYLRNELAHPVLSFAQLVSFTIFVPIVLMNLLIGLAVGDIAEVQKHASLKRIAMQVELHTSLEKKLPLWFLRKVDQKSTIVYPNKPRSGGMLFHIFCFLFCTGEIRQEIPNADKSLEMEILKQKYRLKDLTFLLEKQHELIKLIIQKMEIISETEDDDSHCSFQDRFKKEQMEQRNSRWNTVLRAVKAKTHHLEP

[6] = target: T3, TRPA1; test: FLIPR dose response, hTRPA1; design: expressed in transfected cells
Target sequence in this assay (O75762 whole entry): as the sequence (O75762 whole entry, species assumed) above

[7] = system: TRPV1; test: FLIPR calcium assay, TRPV1-expressing CHO cells; settings: 2 mM
Source text: We then tested these compounds against TRPM8 and TRPV1.

T2 sequence (Q8BLA8 whole entry): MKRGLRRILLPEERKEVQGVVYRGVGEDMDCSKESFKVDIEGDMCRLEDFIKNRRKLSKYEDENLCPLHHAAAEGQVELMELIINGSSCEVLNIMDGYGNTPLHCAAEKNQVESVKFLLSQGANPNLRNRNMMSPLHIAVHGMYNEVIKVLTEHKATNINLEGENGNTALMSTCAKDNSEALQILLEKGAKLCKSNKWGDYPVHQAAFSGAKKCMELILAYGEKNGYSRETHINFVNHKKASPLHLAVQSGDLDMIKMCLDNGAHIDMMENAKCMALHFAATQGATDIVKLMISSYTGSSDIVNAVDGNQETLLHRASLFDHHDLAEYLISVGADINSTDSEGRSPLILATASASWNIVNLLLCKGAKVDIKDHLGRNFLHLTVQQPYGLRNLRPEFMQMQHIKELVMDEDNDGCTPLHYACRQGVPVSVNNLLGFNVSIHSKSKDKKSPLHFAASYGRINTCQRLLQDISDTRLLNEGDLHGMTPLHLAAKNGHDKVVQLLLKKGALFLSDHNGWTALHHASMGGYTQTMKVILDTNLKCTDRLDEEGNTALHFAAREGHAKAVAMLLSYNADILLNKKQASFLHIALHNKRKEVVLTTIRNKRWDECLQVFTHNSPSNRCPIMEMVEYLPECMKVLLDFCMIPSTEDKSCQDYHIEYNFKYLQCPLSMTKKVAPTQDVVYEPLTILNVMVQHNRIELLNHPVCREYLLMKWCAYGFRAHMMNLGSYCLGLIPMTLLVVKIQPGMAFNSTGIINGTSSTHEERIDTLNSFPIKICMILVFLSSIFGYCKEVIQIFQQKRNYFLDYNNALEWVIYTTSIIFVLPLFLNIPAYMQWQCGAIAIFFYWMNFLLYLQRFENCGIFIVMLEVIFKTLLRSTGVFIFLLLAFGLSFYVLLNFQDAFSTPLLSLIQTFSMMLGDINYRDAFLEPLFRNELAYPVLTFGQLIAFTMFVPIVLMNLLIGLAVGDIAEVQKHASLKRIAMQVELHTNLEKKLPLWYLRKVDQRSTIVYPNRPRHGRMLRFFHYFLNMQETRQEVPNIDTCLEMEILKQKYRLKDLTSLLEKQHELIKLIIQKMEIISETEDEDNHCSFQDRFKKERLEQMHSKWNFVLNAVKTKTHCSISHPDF
T1 sequence (Q8BLA8 whole entry): as above

SMILES | calcium response of TRPA1-expressing CHO cells [1] | EC50 ([2]; FLIPR, mTRPA1, read-out: concentration for half maximal activation (EC50)) | calcium response of TRPV1-expressing CHO cells [3] | response of capsaicin-insensitive neurons [4] | DRG neuron population activated at high concentrations ([4]; dilution 1:50 for garlic, 100 μM allicin) | DRG neuron population activated at low concentrations ([4]; dilution 1:500 for garlic, 10 μM allicin) | activation of TRPA1-expressing oocytes [5] | EC50 [6] | specificity to mTRPA1 when tested against TRPM8 and TRPV1 ([2]; 600 μM) | increase in intracellular calcium upon application ([2]; FLIPR, mTRPA1 CHO cells) | activation of TRPV1-expressing cells, relative to TRPV1 response from saturating amounts of capsaicin [7]
C=CCS[S+]([O-])CC=C (centres unmarked) [allicin, diallyl disulfide oxide] | immediate and strong calcium response | 1320 nM | immediate and strong calcium response | never responded | activated the majority of capsaicin-sensitive DRG neurons | activated only the cinnamaldehyde-sensitive neurons | able to activate | 1910 nM | – | – | –
COC(=O)c1ccccc1O [Methyl salicylate] | – | – | – | – | – | – | – | – | specific to mTRPA1 | sharp increase in intracellular calcium | 25%
